In BindingDB's records for patent US20260008775 (Genentech, 2026):

Molecular target: 3-beta-hydroxysteroid-Delta(8),Delta(7)-isomerase (Homo sapiens, UniProt Q15125)
Experiment: Determination of Binding Affinity to EBP-7-Dehydrocholesterol Reductase
Protocol: The plates were sealed and incubated at 4° C. for 3 hrs. Then, the plates were washed with ice-cold assay buffer 3 times. […] Following this, the plate was centrifuged at 1000 rpm for 30 secs. The plate was then sealed and agitated at 600 rpm at 22° C. for 5 min, and then incubated at 22° C. for 3 hrs. The incubation was stopped by transferring the binding solution to the pre-treated UniFilter-96 GF/B plate, vacuum filtrated, and then washed four times with ice-cold assay buffer. Following this, the plates were dried at 37° C. for 45 min. The plates were then sealed at the bottom. 40 µl/well of scintillation cocktail was added to the plates.

Sequence of 3-beta-hydroxysteroid-Delta(8),Delta(7)-isomerase (Q15125 whole entry): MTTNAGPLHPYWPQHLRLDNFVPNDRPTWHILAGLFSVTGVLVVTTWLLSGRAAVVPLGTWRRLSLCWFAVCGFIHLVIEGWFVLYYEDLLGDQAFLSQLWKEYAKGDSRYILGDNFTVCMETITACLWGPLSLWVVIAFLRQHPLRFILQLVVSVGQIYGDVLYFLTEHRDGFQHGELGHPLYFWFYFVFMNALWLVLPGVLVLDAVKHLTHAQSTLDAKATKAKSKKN

- Ki: 188 nM
Structure (SMILES): CC(C)n1nc(-c2cncc(C(F)(F)F)c2)cc1[C@H]1[C@@H]2C[C@@H](N3CCOCC3)C[C@@H]21 [US20260008775, Example Table4.2]
